Laboratory results: patent US11718604B2, “4-amino-6-(1,3-benzodioxole)picolinates and their use as herbicides” (Dow AgroSciences LLC, priority 2018, dated 2023)

Columns and labels:
Assay type in all cases: in vivo
[1] = test system: ABUTH: velvetleaf (Abutilon theophrasti); assay: Post-emergent herbicidal test, velvetleaf; conditions: post-emergence, 336 h, 14 days after application, read-out: Visual Growth Reduction (%) 14 Days After Application ABUTH
Description: (§1) Post-Emergent Test: Seeds or nutlets of the desired test plant species were planted in Sun Gro Metro-Mix® 360 planting mixture, which typically has a pH of 6.0 to 6.8 and an organic matter content of about 30 percent, in plastic pots with a surface area of 64 square centimeters (cm^2). When required to ensure good germination and healthy plants, a fungicide treatment and/or other chemical or physical treatment was applied. The plants were grown for 7-21 d in a greenhouse with an approximate 15 h photoperiod which was maintained at about 23-29° C. during the day and 22-28° C. during the night. Nutrients and water were added on a regular basis and supplemental lighting was provided with overhead metal halide 1000-Watt lamps as necessary. The plants were employed for testing when they reached the first or second true leaf stage.
(§2) A weighed amount, determined by the highest rate to be tested, of each test compound was placed in a 25 mL glass vial and was dissolved in 4 mL of a 97:3 v/v mixture of acetone and DMSO to obtain concentrated stock solutions. […] The concentrated stock solutions obtained were diluted with 20 mL of an aqueous mixture containing acetone, water, isopropyl alcohol, DMSO, Atplus 411F crop oil concentrate, and Triton® X-155 surfactant in a 48.5:39:10:1.5:1.0:0.02 v/v ratio to obtain spray solutions containing the highest application rates. Additional application rates were obtained by serial dilution of 12 mL of the high rate solution into a solution containing 2 mL of a 97:3 v/v mixture of acetone and DMSO and 10 mL of an aqueous mixture containing acetone, water, isopropyl alcohol, DMSO, Atplus 411F crop oil concentrate, and Triton X-155 surfactant in a 48.5:39:10:1.5:1.0:0.02 v/v ratio to obtain ½×, ¼×, ⅛× and 1/16× rates of the high rate. Compound requirements are based upon a 12 mL application volume at a rate of 187 liters per hectare (L/ha). Formulated compounds were applied to the plant material with an overhead Mandel track sprayer equipped with 8002E nozzles calibrated to deliver 187 L/ha over an application area of 0.503 square meters at a spray height of 18 inches (43 cm) above the average plant canopy height. Control plants were sprayed in the same manner with the solvent blank.
(§3) The treated plants and control plants were placed in a greenhouse as described above and watered by subirrigation to prevent wash-off of the test compounds. After 14 d, the condition of the test plants as compared with that of the untreated plants was determined visually and scored on a scale of 0 to 100 percent where 0 corresponds to no injury and 100 corresponds to complete kill.

[2] = test system: BRSNN: oilseed rape, canola (Brassica napus); assay: Post-emergent herbicidal test, oilseed rape; conditions: post-emergence, 336 h, 14 days after application, read-out: Visual Growth Reduction (%) 14 Days After Application BRSNN
Description: as §1, §2, §3

[3] = test system: CIRAR: Canada thistle (Cirsium arvense); assay: Post-emergent herbicidal test, Canada thistle; conditions: post-emergence, 336 h, 14 days after application, read-out: Visual Growth Reduction (%) 14 Days After Application CIRAR
Description: as §1, §2, §3

[4] = test system: EPHHL: wild poinsettia (Euphorbia heterophylla); assay: Post-emergent herbicidal test, wild poinsettia; conditions: post-emergence, 336 h, 14 days after application, read-out: Visual Growth Reduction (%) 14 Days After Application EPHHL
Description: as §1, §2, §3

[5] = test system: IPOHE: ivyleaf morningglory (Ipomoea hederacea); assay: Post-emergent herbicidal test, ivyleaf morningglory; conditions: post-emergence, 336 h, 14 days after application, read-out: Visual Growth Reduction (%) 14 Days After Application IPOHE
Description: as §1, §2, §3

[6] = test system: VIOTR: wild violet (Viola tricolor); assay: Post-emergent herbicidal test, wild violet; conditions: post-emergence, 336 h, 14 days after application, read-out: Visual Growth Reduction (%) 14 Days After Application VIOTR
Description: as §1, §2, §3

[7] = test system: CYPES: yellow nutsedge (Cyperus esculentus); assay: Post-emergent herbicidal test, yellow nutsedge; conditions: post-emergence, 336 h, 14 days after application, read-out: Visual Growth Reduction (%) 14 Days After Application CYPES
Description: as §1, §2, §3

[8] = test system: DIGSA: large crabgrass (Digitaria sanguinalis); assay: Post-emergent herbicidal test, large crabgrass; conditions: post-emergence, 336 h, 14 days after application, read-out: Visual Growth Reduction (%) 14 Days After Application DIGSA
Description: as §1, §2, §3

[9] = test system: ECHCG: barnyardgrass (Echinochloa crus-galli); assay: Post-emergent herbicidal test, barnyardgrass; conditions: post-emergence, 336 h, 14 days after application, read-out: Visual Growth Reduction (%) 14 Days After Application ECHCG
Description: as §1, §2, §3

[10] = test system: SETFA: giant foxtail (Setaria faberi); assay: Post-emergent herbicidal test, giant foxtail; conditions: post-emergence, 336 h, 14 days after application, read-out: Visual Growth Reduction (%) 14 Days After Application SETFA
Description: as §1, §2, §3

[11] = test system: SORVU: shattercane (Sorghum bicolor); assay: Post-emergent herbicidal test, shattercane; conditions: post-emergence, 336 h, 14 days after application, read-out: Visual Growth Reduction (%) 14 Days After Application SORVU
Description: as §1, §2, §3

Compound: COC(=O)c1nc(-c2ccc(F)c3c2OC(F)(F)O3)c(F)c(N)c1Cl [Compound 7]
- pest or weed control at 17.5 g/ha ([1]; 17.5 g ai/ha): 50%
- pest or weed control at 35 g/ha ([1]; 35 g ai/ha): 70%
- pest or weed control at 70 g/ha ([1]; 70 g ai/ha): 75%
- pest or weed control at 140 g/ha ([1]; 140 g ai/ha): 85%
- pest or weed control at 17.5 g/ha ([2]; 17.5 g ai/ha): 50%
- pest or weed control at 35 g/ha ([2]; 35 g ai/ha): 60%
- pest or weed control at 70 g/ha ([2]; 70 g ai/ha): 80%
- pest or weed control at 140 g/ha ([2]; 140 g ai/ha): 85%
- pest or weed control at 17.5 g/ha ([3]; 17.5 g ai/ha): 60%
- pest or weed control at 35 g/ha ([3]; 35 g ai/ha): 70%
- pest or weed control at 70 g/ha ([3]; 70 g ai/ha): 75%
- pest or weed control at 140 g/ha ([3]; 140 g ai/ha): 80%
- pest or weed control at 17.5 g/ha ([4]; 17.5 g ai/ha): 0%
- pest or weed control at 35 g/ha ([4]; 35 g ai/ha): 0%
- pest or weed control at 70 g/ha ([4]; 70 g ai/ha): 10%
- pest or weed control at 140 g/ha ([4]; 140 g ai/ha): 20%
- pest or weed control at 17.5 g/ha ([5]; 17.5 g ai/ha): 0%
- pest or weed control at 35 g/ha ([5]; 35 g ai/ha): 0%
- pest or weed control at 70 g/ha ([5]; 70 g ai/ha): 0%
- pest or weed control at 140 g/ha ([5]; 140 g ai/ha): 0%
- pest or weed control at 17.5 g/ha ([6]; 17.5 g ai/ha): 5%
- pest or weed control at 35 g/ha ([6]; 35 g ai/ha): 10%
- pest or weed control at 70 g/ha ([6]; 70 g ai/ha): 40%
- pest or weed control at 140 g/ha ([6]; 140 g ai/ha): 50%
- pest or weed control at 17.5 g/ha ([7]; 17.5 g ai/ha): 0%
- pest or weed control at 35 g/ha ([7]; 35 g ai/ha): 10%
- pest or weed control at 70 g/ha ([7]; 70 g ai/ha): 30%
- pest or weed control at 140 g/ha ([7]; 140 g ai/ha): 40%
- pest or weed control at 17.5 g/ha ([8]; 17.5 g ai/ha): 0%
- pest or weed control at 35 g/ha ([8]; 35 g ai/ha): 0%
- pest or weed control at 70 g/ha ([8]; 70 g ai/ha): 0%
- pest or weed control at 140 g/ha ([8]; 140 g ai/ha): 0%
- pest or weed control at 17.5 g/ha ([9]; 17.5 g ai/ha): 0%
- pest or weed control at 35 g/ha ([9]; 35 g ai/ha): 0%
- pest or weed control at 70 g/ha ([9]; 70 g ai/ha): 0%
- pest or weed control at 140 g/ha ([9]; 140 g ai/ha): 0%
- pest or weed control at 17.5 g/ha ([10]; 17.5 g ai/ha): 0%
- pest or weed control at 35 g/ha ([10]; 35 g ai/ha): 0%
- pest or weed control at 70 g/ha ([10]; 70 g ai/ha): 0%
- pest or weed control at 140 g/ha ([10]; 140 g ai/ha): 10%
- pest or weed control at 17.5 g/ha ([11]; 17.5 g ai/ha): 0%
- pest or weed control at 35 g/ha ([11]; 35 g ai/ha): 0%
- pest or weed control at 70 g/ha ([11]; 70 g ai/ha): 0%
- pest or weed control at 140 g/ha ([11]; 140 g ai/ha): 0%
